Measured values reported in patent US20240285571A1, “METHODS OF TREATING BONE INFECTIONS” (MICROBION CORPORATION, priority 2020, published 2024).
≈ marks a conversion by molar mass, not a printed value. Where two headings read alike, the source gives them in different places.

What was measured:
[1] = system: baseline pathogens at the surgical site; assay: Phase 2a study: microbiological success / post-baseline microbiology at the index site; assay type: in vivo, human; conditions: Subject 001-002; Subject 006-003, S. aureus (MRSA); 0.5 μg/cm^2 dose group
Description: Microbiology was assessed on Day 1 and at the time of any subsequent surgical procedure at the index site. Samples were collected from the infected bone site or involved tissue adjacent to any implant(s), swabs of the deep infection site, and the superficial tissue/wound closure/sinus tract site. Isolation and identification of aerobic and anerobic bacteria was conducted at a central microbiology laboratory (IHMA, Schaumburg, IL) and susceptibility of the isolates to MBN-101 (BisEDT) and comparator agents was performed per Clinical and Laboratory Standards Institute (CLSI). Parallel sets of samples were analyzed by the local clinical site laboratory to guide patient antibiotic treatment.
Clinical activity of locally administered MBN-101 was assessed by the following: • Proportion of treatment failures. […] Pain intensity at the surgical site was assessed by VAS (0 to 10 scale). • Findings of microbiology evaluations at the surgical site. Microbiologic success was assessed by clearance of infection. • Findings of radiographic evaluations at the surgical site. Radiographic success was assessed by healing on radiologic examination. • Change in serologic markers CRP and ESR at each post-baseline time point. […]

[2] = system: relevant ATCC QC organisms; conditions: CLSI established QC range, cited from earlier work
[3] = system: S. aureus ATCC 29213; conditions: per CLSI M100-S24 or provided by Microbion; cited from earlier work
[4] = system: E. coli ATCC 25922; conditions: per CLSI M100-S24 or provided by Microbion; cited from earlier work
[5] = system: N. gonorrhoeae; conditions: N. gonorrhoeae MMX 683 (ATCC 49226); cited from earlier work
[6] = system: B. fragilis; assay: Agar dilution MIC, anaerobes (Example 5); assay type: cell-based; conditions: Bacteroides fragilis, ATCC25285; B. fragilis MMX 123 (ATCC 25285); QC; read-out: MIC
[7] = system: C. difficile; assay: Agar dilution MIC, anaerobes (Example 5); assay type: cell-based, Clostridium difficile; conditions: Clostridioides difficile, read-out: MIC
[8] = system: B. fragilis; conditions: B. fragilis MMX 123 (ATCC 25285); cited from earlier work
[9] = system: C. difficile; conditions: C. difficile MMX 4381 (ATCC 700057); cited from earlier work

In the case of `C1C[S][Bi]([S]CC[S][Bi]2[S]CC[S]2)[S]1` [BisEDT, bismuth-1,2-ethanedithiol], the “Change of BisEDT MIC, baseline vs post-baseline isolates from the same source” value [1] is listed as “unchanged”, the “MIC QC range (in parentheses)” value ([2]; E. coli ATCC 25922) is listed as “(0.5-4)1 μg/mL” and the “MIC QC range (in parentheses)” value ([2]; P. aeruginosa ATCC 27853) is listed as “(0.5-4) μg/mL”. The “MIC QC range (in parentheses)” value ([2]; S. aureus ATCC 29213) was “(0.12-1) μg/mL”, the “MIC, acceptable range” value [3] was 0.13 to 1 µg/mL and the “MIC, expected results” value [3] was 0.25 to 0.5 µg/mL. The “MIC, acceptable range” value [4] was 0.5 to 2 µg/mL and the “MIC, expected results” value [4] was 1 µg/mL.

In the case of `CO/N=C(\C(=O)N[C@@H]1C(=O)N2C(C(=O)O)=C(CSc3nc(=O)c(=O)[nH]n3C)CS[C@H]12)c1csc(N)n1` [Ceftriaxone], the “CLSI QC range of MIC” value [5] is listed as “(0.004-0.015) μg/mL”.

`Cc1ncc([N+](=O)[O-])n1CCO` [Metronidazole] showed an MIC [6] of 0.5 µg/mL (≈ 2.92 µM), an MIC ([7]; ATCC700057, C. difficile MMX 4381 (ATCC 700057), QC, CCI) of 0.5 µg/mL (≈ 2.92 µM) and an MIC ([7]; C. difficile MMX 8272, ribotype 255, CCI) of 0.5 µg/mL (≈ 2.92 µM). For the same compound, the MIC ([7]; C. difficile MMX 8279, ribotype 005, CCR) was 0.5 µg/mL (≈ 2.92 µM), the MIC ([7]; C. difficile MMX 8281, ribotype 010, CCR) was 8 µg/mL (≈ 46.7 µM) and the MIC ([7]; NCTC13307, C. difficile MMX 5681 (NCTC 13307), ribotype 012, CCR) was 0.5 µg/mL (≈ 2.92 µM). The MIC ([7]; NCTC13336, C. difficile MMX 5680 (NCTC 13336), ribotype 027, CCI METR) was greater than 64 µg/mL, the “CLSI QC range of MIC” value [8] was “(0.25-1) μg/mL” and the “CLSI QC range of MIC” value [9] was “(0.12-0.5) μg/mL”.
